Reference: patent US10030020B2, “Spirocycle compounds and methods of making and using same” (Abide Therapeutics, Inc., priority 2016, dated 2018)

Tests used:
MAGL [1] = target: T1, MAGL (Mus musculus (Mouse), UniProt O35678); assay: In vitro competitive activity-based protein profiling (mouse brain membrane fraction or cell lysates), MAGL band; type: biochemical; conditions: mouse proteome; for inhibition at 1 µM: read-out: MAGL % Inh 1 μM (mouse); for IC50: competitive ABPP
Procedure: In Vitro Competitive Activity-Based Protein Profiling.
Proteomes (mouse brain membrane fraction or cell lysates) (50 μL, 1.0 mg/mL total protein concentration) were preincubated with varying concentrations of inhibitors at 37° C. After 30 min, FP—Rh (1.0 μL, 50 μM in DMSO) was added and the mixture was incubated for another 30 min at 37° C. Reactions were quenched with SDS loading buffer (50 μL-4×) and run on SDS-PAGE.

ABHD6 [2] = target: T2, ABHD6 (Mus musculus (Mouse), UniProt Q8R2Y0); assay: In vitro competitive activity-based protein profiling (mouse brain membrane fraction or cell lysates), ABHD6 band; type: biochemical; conditions: mouse proteome; for inhibition at 1 µM: read-out: ABHD6 % Inh 1 μM (mouse); for IC50: competitive ABPP
T2 sequence (Q8R2Y0 whole entry): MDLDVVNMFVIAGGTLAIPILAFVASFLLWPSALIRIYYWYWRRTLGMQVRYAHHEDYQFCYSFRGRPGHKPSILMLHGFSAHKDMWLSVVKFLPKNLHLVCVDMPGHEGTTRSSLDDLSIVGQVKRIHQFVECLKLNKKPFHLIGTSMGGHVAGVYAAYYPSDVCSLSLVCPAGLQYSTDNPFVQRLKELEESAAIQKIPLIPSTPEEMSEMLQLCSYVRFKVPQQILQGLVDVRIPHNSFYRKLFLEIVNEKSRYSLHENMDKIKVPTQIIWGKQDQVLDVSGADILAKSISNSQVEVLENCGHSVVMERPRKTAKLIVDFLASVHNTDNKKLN
How it was run: (§1)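 Residual hydrolase activity was measured as gel band fluorescence after FP-Rh labelling (30 min, 37° C) of proteomes pretreated 30 min at 37° C with inhibitor.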

FAAH [3] = target: T3, FAAH (Mus musculus (Mouse), UniProt O08914); assay: In vitro competitive activity-based protein profiling (mouse brain membrane fraction or cell lysates), FAAH band; type: biochemical; conditions: mouse proteome; for inhibition at 1 µM: read-out: FAAH % Inh 1 μM (mouse); for IC50: competitive ABPP
T3 sequence (O08914 whole entry): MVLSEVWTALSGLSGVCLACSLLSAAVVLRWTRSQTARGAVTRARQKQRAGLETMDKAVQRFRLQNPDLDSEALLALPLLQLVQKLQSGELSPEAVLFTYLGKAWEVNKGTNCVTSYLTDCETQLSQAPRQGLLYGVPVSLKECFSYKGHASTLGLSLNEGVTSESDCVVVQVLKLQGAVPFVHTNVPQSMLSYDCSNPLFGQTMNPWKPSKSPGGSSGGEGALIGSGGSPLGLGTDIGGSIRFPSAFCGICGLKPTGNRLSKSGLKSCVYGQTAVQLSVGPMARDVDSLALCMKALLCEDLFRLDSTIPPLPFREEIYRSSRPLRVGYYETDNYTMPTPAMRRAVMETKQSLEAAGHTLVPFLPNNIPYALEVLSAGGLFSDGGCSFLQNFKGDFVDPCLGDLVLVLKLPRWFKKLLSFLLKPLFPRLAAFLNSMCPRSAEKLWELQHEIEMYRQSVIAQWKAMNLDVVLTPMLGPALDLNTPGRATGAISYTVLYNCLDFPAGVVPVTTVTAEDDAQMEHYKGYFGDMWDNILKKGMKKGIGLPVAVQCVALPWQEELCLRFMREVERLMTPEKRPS
How it was run: as §1

MAGL [4] = target: T1, MAGL; assay: Mouse brain proteomes from inhibitor treated mice (oral gavage, sacrificed 4 h after administration, ABPP analysis); type: in vivo, mouse (C57Bl/6J); conditions: 5 mg/kg oral gavage
How it was run: (§2)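 Percent inhibition in brain tissue measured by ABPP 4 h after a single oral gavage dose (5 mg/kg) to wild-type C57Bl/6J mice; vehicle was, for example, PEG400/Ethanol/PBS at 7/2/1.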

FAAH [5] = target: T3, FAAH; assay: Mouse brain proteomes from inhibitor treated mice (oral gavage, sacrificed 4 h after administration, ABPP analysis), FAAH; type: in vivo, mouse (C57Bl/6J); conditions: 5 mg/kg oral gavage
How it was run: as §2

ABHD6 [6] = target: T2, ABHD6; assay: Mouse brain proteomes from inhibitor treated mice (oral gavage, sacrificed 4 h after administration, ABPP analysis), ABHD6; type: in vivo, mouse (C57Bl/6J); conditions: 5 mg/kg oral gavage
How it was run: as §2

T1 sequence (O35678 whole entry): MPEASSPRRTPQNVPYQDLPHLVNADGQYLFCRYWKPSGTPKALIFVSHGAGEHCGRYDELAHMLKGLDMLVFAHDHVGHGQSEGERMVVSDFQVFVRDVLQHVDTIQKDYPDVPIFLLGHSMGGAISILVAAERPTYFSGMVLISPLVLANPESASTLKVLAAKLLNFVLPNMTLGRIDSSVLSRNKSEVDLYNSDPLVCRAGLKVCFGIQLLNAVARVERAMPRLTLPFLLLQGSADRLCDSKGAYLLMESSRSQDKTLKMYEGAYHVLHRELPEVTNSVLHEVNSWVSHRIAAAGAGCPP

SMILES	inhibition at 1 µM (MAGL [1])	IC50 (MAGL [1])	inhibition at 1 µM (ABHD6 [2])	IC50 (ABHD6 [2])	inhibition at 1 µM (FAAH [3])	IC50 (FAAH [3])	MAGL % Inh 5 mg/kg (mouse) (MAGL [4])	FAAH % Inh 5 mg/kg (mouse) (FAAH [5])	ABHD6 % Inh 5 mg/kg (mouse) (ABHD6 [6])
O=C(OC(C(F)(F)F)C(F)(F)F)N1CCC2(CCCN2Cc2ccc(OCCF)cc2)CC1 [Example 31, 1,1,1,3,3,3-Hexafluoropropan-2-yl 1-(4-(2-fluoroethoxy)benzyl)-1,8-diazaspiro[4.5]decane-8-carboxylate]	> 75%	< 0.1 µM	< 25%	> 1 µM	< 25%	> 1 µM	### (### is ≥75%)	# (# is <25%)	## (## is equal to or greater than 25% but less than 75%)
CC1(C)CC2(CCN(C(=O)OC(C(F)(F)F)C(F)(F)F)CC2)CN1Cc1cccc(Cl)c1N1CCOCC1 [Example 54, 1,1,1,3,3,3-Hexafluoropropan-2-yl 2-(3-chloro-2-morpholinobenzyl)-3,3-dimethyl-2,8-diazaspiro[4.5]decane-8-carboxylate]	> 75%	< 0.1 µM	< 25%	> 1 µM	< 25%	> 1 µM	## (## is equal to or greater than 25% but less than 75%)	# (# is <25%)	# (# is <25%)
CS(=O)(=O)NC1CCN(c2cc(C(F)(F)F)ccc2CN2CCCC23CCN(C(=O)OC(C(F)(F)F)C(F)(F)F)CC3)CC1 [Example 94, 1,1,1,3,3,3-Hexafluoropropan-2-yl 1-(2-(4-(methylsulfonamido)piperidin-1-yl)-4-(trifluoromethyl)benzyl)-1,8-diazaspiro[4.5]decane-8-carboxylate]	> 75%	< 0.1 µM	< 25%	> 1 µM	< 25%	> 1 µM	# (# is <25%)	# (# is <25%)	# (# is <25%)
CN1CCC(Oc2cc(CN3CCCC34CCN(C(=O)OC(C(F)(F)F)C(F)(F)F)CC4)cc(C(F)(F)F)c2)CC1 [Example 166, 1,1,1,3,3,3-Hexafluoropropan-2-yl 1-(3-(1-methylpiperidin-4-yloxy)-5-(trifluoromethyl)benzyl)-1,8-diazaspiro[4.5]decane-8-carboxylate]	> 75%	< 0.1 µM	< 25%	> 1 µM	< 25%	> 1 µM	# (# is <25%)	# (# is <25%)	# (# is <25%)
O=C(OC(C(F)(F)F)C(F)(F)F)N1CCC2(CCCN2Cc2cccc(N3CC4CCC(C3)O4)c2Cl)CC1 [Example 82, 1,1,1,3,3,3-Hexafluoropropan-2-yl 1-(3-(8-oxa-3-azabicyclo[3.2.1]octan-3-yl)-2-chlorobenzyl)-1,8-diazaspiro[4.5]decane-8-carboxylate]	> 75%	< 0.1 µM	< 25%	> 1 µM	< 25%	> 1 µM	### (### is ≥75%)	# (# is <25%)	# (# is <25%)
O=C(OC(C(F)(F)F)C(F)(F)F)N1CCC2(CCN(Cc3ccc(C(F)(F)F)cc3N3CCOCC3)C2)CC1 [Example 22, 1,1,1,3,3,3-Hexafluoropropan-2-yl 2-(2-morpholino-4-(trifluoromethyl)benzyl)-2,8-diazaspiro[4.5]decane-8-carboxylate]	> 75%	< 0.1 µM	≥ 75%	0.1 to 1 µM	< 25%	> 1 µM	### (### is ≥75%)	# (# is <25%)	# (# is <25%)
O=C(OC(C(F)(F)F)C(F)(F)F)N1CCC2(CCCN2Cc2cc(N3CCCC3)cc(C(F)(F)F)c2)CC1 [Example 36, 1,1,1,3,3,3-Hexafluoropropan-2-yl 1-(3-(pyrrolidin-1-yl)-5-(trifluoromethyl)benzyl)-1,8-diazaspiro[4.5]decane-8-carboxylate]	> 75%	< 0.1 µM	< 25%	> 1 µM	< 25%	> 1 µM	### (### is ≥75%)	# (# is <25%)	# (# is <25%)
O=C(OC(C(F)(F)F)C(F)(F)F)N1CCC2(CCN(Cc3c(N4CC5COCC5C4)cccc3C(F)(F)F)C2)CC1 (stereo not drawn) [Example 18, 1,1,1,3,3,3-Hexafluoropropan-2-yl 2-(2-(tetrahydro-1H-furo[3,4-c]pyrrol-5(3H)-yl)-6-(trifluoromethyl)benzyl)-2,8-diazaspiro[4.5]decane-8-carboxylate]	> 75%	< 0.1 µM	25 to 75%	> 1 µM	< 25%	> 1 µM	## (## is equal to or greater than 25% but less than 75%)	# (# is <25%)	# (# is <25%)
CCN1CCN(c2cc(C(F)(F)F)ccc2CN2CCCC23CCN(C(=O)OC(C(F)(F)F)C(F)(F)F)CC3)CC1 [Example 87, 1,1,1,3,3,3-Hexafluoropropan-2-yl 1-(2-(4-ethylpiperazin-1-yl)-4-(trifluoromethyl)benzyl)-1,8-diazaspiro[4.5]decane-8-carboxylate]	> 75%	< 0.1 µM	< 25%	> 1 µM	< 25%	> 1 µM	## (## is equal to or greater than 25% but less than 75%)	# (# is <25%)	# (# is <25%)
O=C(OC(C(F)(F)F)C(F)(F)F)N1CCC2(CCCN2Cc2cc(N3CCC3)cc(C(F)(F)F)c2)CC1 [Example 47, 1,1,1,3,3,3-Hexafluoropropan-2-yl 1-(3-(azetidin-1-yl)-5-(trifluoromethyl)benzyl)-1,8-diazaspiro[4.5]decane-8-carboxylate]	> 75%	< 0.1 µM	< 25%	> 1 µM	< 25%	> 1 µM	### (### is ≥75%)	# (# is <25%)	# (# is <25%)
O=C(OC(C(F)(F)F)C(F)(F)F)N1CCC2(CCCN2Cc2ccc(Cl)cc2N2CC3CCC(C2)O3)CC1 [Example 75, 1,1,1,3,3,3-Hexafluoropropan-2-yl 1-(2-(8-oxa-3-azabicyclo[3.2.1]octan-3-yl)-4-chlorobenzyl)-1,8-diazaspiro[4.5]decane-8-carboxylate]	> 75%	< 0.1 µM	< 25%	> 1 µM	< 25%	> 1 µM	### (### is ≥75%)	# (# is <25%)	# (# is <25%)

More lines, now with the values ahead:

inhibition at 1 µM (MAGL [1])	IC50 (MAGL [1])	inhibition at 1 µM (ABHD6 [2])	IC50 (ABHD6 [2])	inhibition at 1 µM (FAAH [3])	IC50 (FAAH [3])	MAGL % Inh 5 mg/kg (mouse) (MAGL [4])	FAAH % Inh 5 mg/kg (mouse) (FAAH [5])	ABHD6 % Inh 5 mg/kg (mouse) (ABHD6 [6])	SMILES
> 75%	< 0.1 µM	< 25%	> 1 µM	< 25%	> 1 µM	### (### is ≥75%)	# (# is <25%)	# (# is <25%)	O=C(OC(C(F)(F)F)C(F)(F)F)N1CCC2(CCCN2Cc2ccc(C(F)(F)F)cc2N2CCC2)CC1 [Example 96, 1,1,1,3,3,3-Hexafluoropropan-2-yl 1-(2-(azetidin-1-yl)-4-(trifluoromethyl)benzyl)-1,8-diazaspiro[4.5]decane-8-carboxylate]
> 75%	< 0.1 µM	25 to 75%	> 1 µM	25 to 75%	> 1 µM	### (### is ≥75%)	### (### is ≥75%)	# (# is <25%)	O=C(OC(C(F)(F)F)C(F)(F)F)N1CCC2(CCCN2Cc2cccc(Cl)c2)CC1 [Example 61, 1,1,1,3,3,3-Hexafluoropropan-2-yl 1-(3-chlorobenzyl)-1,8-diazaspiro[4.5]decane-8-carboxylate]
> 75%	< 0.1 µM	< 25%	> 1 µM	< 25%	> 1 µM	### (### is ≥75%)	# (# is <25%)	# (# is <25%)	O=C(OC(C(F)(F)F)C(F)(F)F)N1CCC2(CCCN2Cc2ccc(Cl)cc2N2CCOCC2)CC1 [Example 77, 1,1,1,3,3,3-Hexafluoropropan-2-yl 1-(4-chloro-2-morpholinobenzyl)-1,8-diazaspiro[4.5]decane-8-carboxylate]
